Laboratory results as given in patent US6558699B2, “High drug load immediate and modified release oral dosage formulations and processes for their manufacture” (SmithKline Beecham Corporation, priority 1997, dated 2003).

Experiments:
[1] = Human clinical studies (tolerability and pharmacokinetics); assay type: in vivo; conditions: for safety and tolerability: human clinical studies, doses up to 800 mg per day
[2] = Hydrate formation during wet granulation (TGA, DSC, XRD); assay type: physicochemical; conditions: wet granulation with water
Source text: (§1) FIGS. 1(A), 2(A) and 3(A) show, respectively, the thermogravimetric analysis (TGA), the differential scanning calorimetric (DSC) thermogram and the powder X-ray diffraction (XRD) pattern of the free base of anhydrous (E)-α-[2-n-butyl-1-[(4-carboxyphenyl)methyl]-1H-imidazol-5-yl]methylene-2-thiophenepropionic acid.
as §1, with “1B-D, 2B-D” for “1(A), 2(A)”, “3B-D” for “3(A)”, “patterns for the granulations” for “pattern”, “acid with different binders and binder-diluent combinations.” for “acid.”
FIGS. 1B, 2B and 3B show, respectively, the thermogravimetric analysis (TGA), the differential scanning calorimetric (DSC) thermogram and the powder X-ray diffraction (XRD) patterns for the granulations of (E)-α-[2-n-butyl-1-[(4-carboxyphenyl)methyl]-1H-imidazol-5-yl]methylene-2-thiophenepropionic acid with Starch 1551 (96/4 eprosartan free base/Starch 1551). […]

[3] = Drug release from enteric-coated modified release tablets and drug solubility at the initiation pH; conditions: pH >4.0 (PVAP), >5.0 (HPMCP), 5.5 (Eudragit)
Source text: Tablets of Formulas 1-4 may be optionally provided with an aqueous film coating. Generally, these tablets are coated first with a polymer solution to form a clear film, and then coated with an aqueous polymer solution/suspension to form an opaque, white or colored film. […] In contrast, tablets of Formulas 5-7 are first coated with an aqueous polymer solution to form a clear film (often called seal coat) and then with an aqueous solution/suspension of an enteric polymer such as Eudragit L30D, hydroxypropyl methycellulose acetate phthalate (HPMCP), cellulose acetate phthalate (CAP) or polyvinyl acetate phthalate (PVAP). The weight gains following seal coat and enteric coat are about 3-6% and 4-12% (most preferably 3-4% and 4-6%) respectively. The modified release tablets thus produced release <20% drug in the stomach following the oral administration and rapidly release the drug at higher pHs, depending on the polymer used (for e.g., at a pH >4.0 for PVAP, >5.0 for HPMCP and 5.5 for Eudragit), even though the drug solubility at these initiation pHs is negligible. The water imbibed into the tablets dissolves arginine creating a high pH environment in which Eprosartan dissolves. This high pH also dissolves the film coating, releasing the drug substance to the environment.

hydrate formation during wet granulation [2]	drug solubility at the initiation pHs [3]	Structure (SMILES)	safety and tolerability [1]	bioavailability ([1]; human, in vivo, oral, read-out: mean absolute bioavailability) [%]
forms a dihydrate	–	CCCCc1ncc(/C=C(\Cc2cccs2)C(=O)O)n1Cc1ccc(C(=O)O)cc1.CS(=O)(=O)O [(E)-α-[2-n-Butyl-1-[(4-carboxyphenyl)-methyl]-1H-imidazol-5-yl]methylene-2-thiophenepropionic acid monomethanesulfonate]	safe and well tolerated	~13
does not form a hydrate	negligible	CCCCc1ncc(/C=C(\Cc2cccs2)C(=O)O)n1Cc1ccc(C(=O)O)cc1 [Eprosartan, (E)-α-[2-n-Butyl-1-[(4-carboxyphenyl)methyl]-1H-imidazol-5-yl]methylene-2-thiophenepropionic acid]	safe and well tolerated	–
